Data as given in the Kinase Knowledgebase extract (Sharma et al. 2016).

Target: PIK3CD (Human) (UniProt O00329)
Assay: Assessment of PIK3CD Kinase Activity (Scintillation Proximity Assay)

PIK3CD (Human), sequence (O00329 whole entry, looked up): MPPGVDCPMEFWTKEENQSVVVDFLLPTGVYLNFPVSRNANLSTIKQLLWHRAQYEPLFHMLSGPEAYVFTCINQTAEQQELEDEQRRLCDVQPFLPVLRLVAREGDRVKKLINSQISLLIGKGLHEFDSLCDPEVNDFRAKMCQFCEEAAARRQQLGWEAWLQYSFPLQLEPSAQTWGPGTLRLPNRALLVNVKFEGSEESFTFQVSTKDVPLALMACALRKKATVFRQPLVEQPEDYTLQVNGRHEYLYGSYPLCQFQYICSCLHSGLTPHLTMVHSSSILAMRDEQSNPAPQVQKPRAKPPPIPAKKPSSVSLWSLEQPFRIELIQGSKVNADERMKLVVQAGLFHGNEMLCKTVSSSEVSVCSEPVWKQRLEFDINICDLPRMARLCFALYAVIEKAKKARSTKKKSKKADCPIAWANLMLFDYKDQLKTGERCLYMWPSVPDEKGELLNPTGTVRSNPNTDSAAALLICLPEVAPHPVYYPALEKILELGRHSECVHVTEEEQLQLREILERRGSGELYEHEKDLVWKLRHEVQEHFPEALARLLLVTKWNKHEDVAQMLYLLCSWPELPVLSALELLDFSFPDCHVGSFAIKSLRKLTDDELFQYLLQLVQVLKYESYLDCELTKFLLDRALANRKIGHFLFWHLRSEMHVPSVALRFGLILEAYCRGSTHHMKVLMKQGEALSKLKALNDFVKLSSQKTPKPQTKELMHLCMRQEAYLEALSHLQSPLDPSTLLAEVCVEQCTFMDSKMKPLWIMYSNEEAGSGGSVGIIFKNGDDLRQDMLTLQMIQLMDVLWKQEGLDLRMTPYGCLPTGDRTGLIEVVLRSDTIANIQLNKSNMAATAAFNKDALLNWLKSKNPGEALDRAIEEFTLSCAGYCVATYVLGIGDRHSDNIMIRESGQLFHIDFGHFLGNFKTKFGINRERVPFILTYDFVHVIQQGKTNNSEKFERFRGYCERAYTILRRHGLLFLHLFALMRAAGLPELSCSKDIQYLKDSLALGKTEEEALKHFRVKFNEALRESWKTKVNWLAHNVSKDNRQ

Structure (SMILES) | IC50
CCC(C)N1CC(c2c(C)c(Cl)cc(C(C)n3nc(C)c4c(N)ncnc43)c2OC)C1 (stereo not drawn) | ≤ 0.01 µM
COc1c(C(C)n2ccc(=O)c3c(N)ncnc32)cc(Cl)c(C)c1-c1cccnc1 (stereo not drawn) | ≤ 0.01 µM
CCOc1c(C(C)n2nc(C)c3c(N)ncnc32)cc(Cl)c(C#N)c1C1CN(C(C)(C)C(N)=O)C1 (stereo not drawn) | ≤ 0.01 µM
COc1c(C(C)n2nc(C)c3c(N)ncnc32)cc(C)c(C#N)c1C1CN(C[C@H](C)O)C1 (stereo partly drawn) | ≤ 0.01 µM
CCOc1c(C(C)n2nc(C)c3c(N)ncnc32)cc(Cl)c(C#N)c1C1CN(CCO)C1 (stereo not drawn) | ≤ 0.01 µM
COc1c(C(C)n2nc(C)c3c(N)ncnc32)cc(Cl)c(C#N)c1C1CN(C2COC2)C1 (stereo not drawn) | ≤ 0.01 µM
CCN1CC(c2c(Cl)c(Cl)cc(C(C)n3nc(C)c4c(N)ncnc43)c2OC)C1 (stereo not drawn) | ≤ 0.01 µM
CCOc1c(C(C)n2nc(CN(C)C)c3c(N)ncnc32)cc(Cl)c(C)c1-c1ccc(C(=O)N(C)C)nc1 (stereo not drawn) | 0.05 to 0.2 µM
COc1c(C(C)n2nc(C)c3c(N)ncnc32)cc(Cl)c(C#N)c1C1CNC1 (stereo not drawn) | ≤ 0.01 µM
COc1c(C(C)n2nc(C)c3c(N)ncnc32)cc(Cl)c(C)c1C1CN(C(=O)[C@H](C)O)C1 (stereo partly drawn) | ≤ 0.01 µM
COc1c(C(C)n2nc(C)c3c(N)ncnc32)cc(Cl)c(C)c1CCC(=O)N(C)C (stereo not drawn) | ≤ 0.01 µM
COc1c(C(C)n2nc(C)c3c(N)ncnc32)cc(Cl)c(C)c1C1CN(CC2CC2)C1 (stereo not drawn) | ≤ 0.01 µM
COc1c(C(C)n2nc(C)c3c(N)ncnc32)cc(Cl)c(C)c1C1CN(C(=O)c2cn[nH]c2)C1 (stereo not drawn) | ≤ 0.01 µM
COc1c(C(C)n2nc(C)c3c(N)ncnc32)cc(Cl)c(C)c1C1CNC(=O)CO1 (stereo not drawn) | ≤ 0.01 µM
COc1c(C(C)n2nc(C)c3c(N)ncnc32)cc(Cl)c(C#N)c1C1CN(S(C)(=O)=O)C1 (stereo not drawn) | ≤ 0.01 µM
COc1c(C(C)n2nc(C)c3c(N)ncnc32)cc(Cl)c(C)c1-c1cncnc1 (stereo not drawn) | ≤ 0.01 µM
COc1c(C(C)n2nc(C)c3c(N)ncnc32)cc(Cl)c(C)c1C1CN(C(=O)c2cnoc2C)C1 (stereo not drawn) | ≤ 0.01 µM
CCOc1c(C(C)n2nc(C)c3c(N)ncnc32)cc(Cl)c(C#N)c1C1CN(C(=O)OC(C)C)C1 (stereo not drawn) | ≤ 0.01 µM
CCOc1c(C(C)n2nc(C)c3c(N)ncnc32)cc(Cl)c(C#N)c1C1CN(C(=O)NC(C)(C)C)C1 (stereo not drawn) | ≤ 0.01 µM
CCOc1c(C(C)n2nc(C)c3c(N)ncnc32)cc(C)c(C#N)c1C1CN(CC(C)(C)O)C1 (stereo not drawn) | ≤ 0.01 µM
COc1c([C@H](C)n2nc(C)c3c(N)ncnc32)cc(Cl)c(C#N)c1C1CN(C[C@@H](C)O)C1 | ≤ 0.01 µM
COc1c(C(C)n2nc(C)c3c(N)ncnc32)cc(Cl)c(C)c1C1CN(C[C@@H](C)O)C1 (stereo partly drawn) | ≤ 0.01 µM
CCOc1c(C(C)n2nc(C)c3c(N)ncnc32)cc(Cl)c(C#N)c1C1CN(C(C)(C)C(=O)NC)C1 (stereo not drawn) | ≤ 0.01 µM
CCOc1c(C(C)n2cc(C)c3c(N)ncnc32)cc(Cl)c(C#N)c1C1CN(C[C@H](C)O)C1 (stereo partly drawn) | ≤ 0.01 µM
COc1c(C(C)n2ccc(=O)c3c(N)ncnc32)cc(Cl)c(C)c1-c1ccc(C(=O)N(C)C)nc1 (stereo not drawn) | ≤ 0.01 µM
CCOc1c(C(C)n2cc(C)c3c(N)ncnc32)cc(Cl)c(C#N)c1C1CN(C(C)C)C1 (stereo not drawn) | ≤ 0.01 µM
CCOc1c(C(C)n2nc(C)c3c(N)ncnc32)cc(Cl)c(C)c1C1CN(C[C@H](C)O)C1 (stereo partly drawn) | ≤ 0.01 µM

Structure (SMILES) | IC50
CCOc1c(C(C)n2nc(C)c3c(N)ncnc32)cc(C)c(C#N)c1C1CN(C(C)C)C1 (stereo not drawn) | ≤ 0.01 µM
CCOc1c(C(C)n2ccc(=O)c3c(N)ncnc32)cc(Cl)c(C#N)c1-c1ccc(C(=O)N(C)C)nc1 (stereo not drawn) | ≤ 0.01 µM
CCOc1c(C(C)n2nc(-c3cc[nH]n3)c3c(N)ncnc32)cc(Cl)c(C)c1-c1ccc(C(=O)N(C)C)nc1 (stereo not drawn) | ≤ 0.01 µM
CCOc1c(C(C)n2nc(C(F)F)c3c(N)ncnc32)cc(Cl)c(C)c1-c1ccc(C(=O)N(C)C)nc1 (stereo not drawn) | ≤ 0.01 µM
COc1c(C(C)n2nc(C(F)F)c3c(N)ncnc32)cc(C#N)c(C)c1C1CN(CCO)C1 (stereo not drawn) | ≤ 0.01 µM
COC(=O)N1CC(c2c(C#N)c(Cl)cc(C(C)n3nc(C)c4c(N)ncnc43)c2OC)C1 (stereo not drawn) | ≤ 0.01 µM
COc1c(C(C)n2nc(C)c3c(N)ncnc32)cc(Cl)c(C)c1C1CN(CC(C)C)C1 (stereo not drawn) | ≤ 0.01 µM
COc1c(C(C)n2nc(C(F)F)c3c(N)ncnc32)cc(C#N)c(C)c1C1CN(C(C)=O)C1 (stereo not drawn) | ≤ 0.01 µM
COc1c(C(C)n2nc(C)c3c(N)ncnc32)cc(Cl)c(C#N)c1C1CN(S(=O)(=O)C2CC2)C1 (stereo not drawn) | ≤ 0.01 µM
COc1c(C(C)n2nc(C)c3c(N)ncnc32)cc(Cl)c(C)c1C1CNC(=O)O1 (stereo not drawn) | ≤ 0.01 µM
CCOc1c(C(C)n2nc(C)c3c(N)ncnc32)cc(Cl)c(C#N)c1C1CCOC1 (stereo not drawn) | ≤ 0.01 µM
COc1c(C(C)n2nc(C)c3c(N)ncnc32)cc(Cl)c(C)c1C1CN(C(=O)c2cnn(C)c2)C1 (stereo not drawn) | ≤ 0.01 µM
CCOc1c(C(C)n2nc(C)c3c(N)ncnc32)cc(C)c(C#N)c1N1CCCC1 (stereo not drawn) | ≤ 0.01 µM
CCOc1c(C(C)n2nc(CO)c3c(N)ncnc32)cc(Cl)c(C)c1-c1ccc(C(=O)N(C)C)nc1 (stereo not drawn) | ≤ 0.01 µM
COc1c(C(C)n2nc(C)c3c(N)ncnc32)cc(Cl)c(C)c1-c1cncc(C(=O)N(C)CCO)c1 (stereo not drawn) | ≤ 0.01 µM
CCOc1c(C(C)n2nc(-c3cnn(CCO)c3)c3c(N)ncnc32)cc(Cl)c(C)c1-c1ccc(C(=O)N(C)C)nc1 (stereo not drawn) | ≤ 0.01 µM
COc1c(C(C)n2nc(C)c3c(N)ncnc32)cc(Cl)c(C)c1-c1ccc(C(=O)N(C)C)c(F)c1 (stereo not drawn) | ≤ 0.01 µM
COc1c(C(C)n2ccc(=O)c3c(N)ncnc32)cc(Cl)c(C)c1-c1cncc(C#N)c1 (stereo not drawn) | ≤ 0.01 µM
Cc1c(Cl)cc(C(C)n2nc(C)c3c(N)ncnc32)c(OCC2CC2)c1-c1ccc(C(=O)N(C)C)nc1 (stereo not drawn) | ≤ 0.01 µM
COc1c(C(C)n2cc(C)c(=O)c3c(N)ncnc32)cc(Cl)c(C)c1-c1ccc(C(=O)N(C)C)nc1 (stereo not drawn) | ≤ 0.01 µM
CCOc1c(C(C)n2cc(C)c3c(N)ncnc32)cc(Cl)c(C#N)c1C1CN(CCO)C1 (stereo not drawn) | ≤ 0.01 µM
COc1c(C(C)n2cc(-c3cn[nH]c3)c(=O)c3c(N)ncnc32)cc(Cl)c(C)c1-c1ccc(C(=O)N(C)C)nc1 (stereo not drawn) | ≤ 0.01 µM
COc1c(C(C)n2cc(C)c3c(N)ncnc32)cc(Cl)c(C)c1-c1ccc(C(=O)N(C)C)nc1 (stereo not drawn) | ≤ 0.01 µM
CCOc1c(C(C)n2nc(C)c3c(N)ncnc32)cc(C)c(C#N)c1-c1ccc(C(=O)N(C)C)nc1 (stereo not drawn) | ≤ 0.01 µM
COc1c(C(C)n2nc(C)c3c(N)ncnc32)cc(Cl)c(C)c1C1CN(CC(C)(C)O)C1 (stereo not drawn) | ≤ 0.01 µM
COc1c(C(C)n2nc(C)c3c(N)ncnc32)cc(Cl)c(C)c1C1CN([C@H](C)C(=O)N(C)C)C1 (stereo partly drawn) | ≤ 0.01 µM

Other lines, results leading:

IC50 | Structure (SMILES)
≤ 0.01 µM | CCOc1c(C(C)n2nc(CF)c3c(N)ncnc32)cc(Cl)c(C)c1-c1ccc(C(=O)N(C)C)nc1 (stereo not drawn)
≤ 0.01 µM | COc1c(C(C)n2nc(C)c3c(N)ncnc32)cc(Cl)c(C)c1C1CN(C2COC2)C1 (stereo not drawn)
≤ 0.01 µM | COc1c(C(C)n2nc(C(F)F)c3c(N)ncnc32)cc(Cl)c(F)c1C1CN(C)C1 (stereo not drawn)
≤ 0.01 µM | COc1c(C(C)n2nc(C)c3c(N)ncnc32)cc(Cl)c(Cl)c1C1CN(CC#N)C1 (stereo not drawn)
≤ 0.01 µM | COc1c(C(C)n2nc(C)c3c(N)ncnc32)cc(Cl)c(C)c1C1CN(CC#N)C1 (stereo not drawn)
≤ 0.01 µM | COc1c(C(C)n2nc(-c3cn[nH]c3)c3c(N)ncnc32)cc(Cl)c(C)c1C1CN(CC#N)C1 (stereo not drawn)
≤ 0.01 µM | COc1c(C(C)n2nc(C)c3c(N)ncnc32)cc(Cl)c(C#N)c1C1CN(CC(C)C)C1 (stereo not drawn)
≤ 0.01 µM | CCOc1c(C(C)n2nc(C)c3c(N)ncnc32)cc(Cl)c(F)c1C1CN(CC(F)(F)F)C1 (stereo not drawn)
≤ 0.01 µM | COc1c(C(C)n2nc(C)c3c(N)ncnc32)cc(Cl)c(C)c1-c1ccnc(C(=O)N(C)CCO)c1 (stereo not drawn)
≤ 0.01 µM | COc1c(C(C)n2nc(C)c3c(N)ncnc32)cc(Cl)c(C)c1-c1ccc(C(=O)NCCO)nc1 (stereo not drawn)
≤ 0.01 µM | CCNC(=O)c1c(C)c(Cl)cc(C(C)n2nc(-c3cn[nH]c3)c3c(N)ncnc32)c1OCC (stereo not drawn)
≤ 0.01 µM | COc1c(C(C)n2nc(C)c3c(N)ncnc32)cc(C)c(C#N)c1C1CN(CC(C)(C)O)C1 (stereo not drawn)
≤ 0.01 µM | COc1c(C(C)n2nc(C)c3c(N)ncnc32)cc(Cl)c(C)c1C1CN(CC(N)=O)C1 (stereo not drawn)
≤ 0.01 µM | COc1c(C(C)n2nc(C)c3c(N)ncnc32)cc(Cl)c(C#N)c1C1CN(C(=O)C2CC2)C1 (stereo not drawn)
≤ 0.01 µM | COc1c(C(C)n2nc(C)c3c(N)ncnc32)cc(Cl)c(C)c1-c1ccnc(C(=O)N(C)C)c1 (stereo not drawn)
0.01 to 0.05 µM | CCOc1c(C(C)n2nc(-c3ccc(F)cc3)c3c(N)ncnc32)cc(Cl)c(C)c1-c1ccc(C(=O)N(C)C)nc1 (stereo not drawn)
≤ 0.01 µM | COc1c(C(C)n2nc(C)c3c(N)ncnc32)cc(Cl)c(Cl)c1C1CN(CCO)C1 (stereo not drawn)
≤ 0.01 µM | COc1c(C(C)n2nc(C)c3c(N)ncnc32)cc(Cl)c(C)c1-c1ccc(N(C)C)nc1 (stereo not drawn)

IC50 | Structure (SMILES)
≤ 0.01 µM | COc1c(C(C)n2nc(-c3cnn(C)c3)c3c(N)ncnc32)cc(Cl)c(C)c1C1CN(CC#N)C1 (stereo not drawn)
≤ 0.01 µM | COc1c(C(C)n2nc(C)c3c(N)ncnc32)cc(Cl)c(C)c1-c1cncc(S(C)(=O)=O)c1 (stereo not drawn)
≤ 0.01 µM | CCOc1c(C(C)n2nc(C)c3c(N)ncnc32)cc(Cl)c(C#N)c1C1CN(CC(C)C)C1 (stereo not drawn)
≤ 0.01 µM | COc1c(C(C)n2nc(C)c3c(N)ncnc32)cc(Cl)c(C)c1C1CN([C@@H](C)C(O)N(C)C)C1 (stereo partly drawn)
≤ 0.01 µM | CCOc1c(C(C)n2nc(C)c3c(N)ncnc32)cc(Cl)c(C)c1C1CN(CC(C)(C)O)C1 (stereo not drawn)
≤ 0.01 µM | CCOc1c(C(C)n2nc(C)c3c(N)ncnc32)cc(Cl)c(C#N)c1C1CN(CC#N)C1 (stereo not drawn)
≤ 0.01 µM | COc1c(C(C)n2nc(C)c3c(N)ncnc32)cc(Cl)c(C)c1-c1cncc(C(=O)N(C)CCN)c1 (stereo not drawn)
≤ 0.01 µM | CCOc1c(C(C)n2nc(C)c3c(N)ncnc32)cc(Cl)c(C#N)c1-c1ccc(-c2nnn(C)n2)nc1 (stereo not drawn)
≤ 0.01 µM | CCOc1c(C(C)n2nc(C)c3c(N)ncnc32)cc(Cl)c(C#N)c1C1CN(S(=O)(=O)C2CC2)C1 (stereo not drawn)
≤ 0.01 µM | CCOc1c(C(C)n2nc(C)c3c(N)ncnc32)cc(Cl)c(C#N)c1C1CN(CC2CCOC2)C1 (stereo not drawn)
≤ 0.01 µM | CCOc1c(C(C)n2nc(C(F)F)c3c(N)ncnc32)cc(Cl)c(F)c1C1CN(CC(C)(C)O)C1 (stereo not drawn)
≤ 0.01 µM | CCOc1c(C(C)n2nc(C)c3c(N)ncnc32)cc(Cl)c(F)c1C1CN(CC(C)(C)O)C1 (stereo not drawn)
≤ 0.01 µM | CCN1CC(c2c(C)c(Cl)cc(C(C)n3nc(C)c4c(N)ncnc43)c2OC)C1 (stereo not drawn)
≤ 0.01 µM | CCOc1c(C(C)n2nc(C)c3c(N)ncnc32)cc(Cl)c(C#N)c1C1CN(C(N)=O)C1 (stereo not drawn)
≤ 0.01 µM | COc1c(C(C)n2nc(C)c3c(N)ncnc32)cc(Cl)c(C#N)c1C1CN(C[C@@H](C)O)C1 (stereo partly drawn)
≤ 0.01 µM | CCOc1c(C(C)n2nc(C)c3c(N)ncnc32)cc(Cl)c(C)c1-c1ccnc(C(=O)N(C)C)c1 (stereo not drawn)
≤ 0.01 µM | COc1c(C(C)n2nc(C)c3c(N)ncnc32)cc(Cl)c(C)c1-c1cnn(CC(=O)N(C)C)c1 (stereo not drawn)
